# According to ChEMBL document CHEMBL1240444, “Aconitum and Delphinium alkaloids of curare-like activity. QSAR analysis and molecular docking of alkaloids into AChBP” (Eur J Med Chem, 2010):
# Assays:
# [1] = Selectivity ratio of binding affinity for alpha7 nAChR to alpha3beta2
# [2] = Selectivity ratio of binding affinity for alpha7 nAChR to alpha4beta2 nAChR
# [3] = Selectivity ratio of binding affinity for alpha7 nAChR to muscle nAChR; assay type: tissue-based; conditions: Muscle tissue
smiles,measurement,setting,value
CCN1C[C@]2(COC(=O)c3ccccc3N3C(=O)C[C@H](C)C3=O)CC[C@H](OC)[C@@]34[C@@H]5C[C@H]6[C@H](OC)[C@@H]5[C@](O)(C[C@@H]6OC)[C@](O)([C@@H](OC)[C@H]23)[C@@H]14,Ratio,[1],100
same,Ratio,[2],1000
same,Ratio,[3],10000
